From patent US5166219A, “Systemic anti-inflammatory treatment” (Lidak Pharmaceuticals, priority 1991, dated 1992)
Read-outs that look alike come from different tables or passages of the source.

Key:
inflammatory disorders = conditions: Clark, U.S. Pat. No. 4,670,471; cited from earlier work
[1] = system: physical performance of athletes; conditions: vegetable oil bases, oral ingestion; U.S. Pat. No. 3,031,376; cited from earlier work
growth of plants = conditions: Ries et al. and others; cited from earlier work
[2] = system: collagen-induced arthritis; test: Treatment of collagen-induced arthritis (CIA) in DBA/1 mice; format: in vivo
Method: DBA/1 mice were injected intradermally at the base of the tail on days zero and 28 with 20 μg chick type II collagen emulsified in CFA. The mammals were followed for clinical signs of arthritis, i.e., joint erythema, edema, and loss of function. The data illustrated in FIG. 1 were derived from a series of 5 independently conducted experiments which show the clinical course of collagen-induced arthritis (CIA) in DBA/1 mice immunized with chick type II collagen/CFA. Male DBA/1 mice were immunized with 20 μg chick type Ii collagen emulsified in CFA on days zero and 28. The mammals were followed for a total of 70 days for clinical signs of arthritis, joint erythema, edema, and loss of function. That data represent the means and standard deviations of incidence of arthritis and spontaneous remission from 5 separate experiments using 10-15 mice per experiment. p As noted by others, Stuart, J. M., Townes, A. S., and Knag, A. H., Ann. Rev. Immunol. […] Histologic analysis (not shown) confirmed extensive mononuclear infiltration and pannus formation as reported by others using similar techniques, Wooley, P. H., Luthra, H. S., Stuart, J. M., and David, C. S., J. Exp. Med. 154:688-700, 1981. […] We used a four point scoring system where zero is a normal limb, 1 being marginal swelling and erythema, 2 being progressively more severe swelling, erythema, and lack of flexibility, and 3 being severe erythema, edema, and often complete fusion of the bone elements and lack of flexibility. […] S., J. Exp. Med. 154:688-700, 1981.
Male DBA/1 (obtained from Jackson Laboratories, Bar Harbor, Me.) were used at 8 to 12 weeks of age. The mice were immunized intradermally at the base of the tail on day zero and again on day 28 with 20 μg chick type II collagen, prepared exactly as described by others, Trentham, D. E., Townes, A. S., and Kang, A. H., J. Exp. Med. 146:857-858, 1977, or obtained commercially (Genzyme, Boston, Ma.), emulsified in complete Freund's adjuvant (Difco, Ann Arbor, Mi.). The mammals were examined visually twice weekly for arthritic signs, swollen and erythremic limbs. Induction of CIA-associated histopathology was assessed by evaluation of paraffin sections of normal limbs, and limbs obtained from mammals with various stages of the disease essentially as described by others, Wooley, P. H., Luthra, H. S., Stuart, J. M., and David, C. S., J. Exp. Med 154:688-700, 1981.
n-Docosanol was suspended in Pluronic F68® (Trademark of BASF Corp; chemical composition, poloxamer 188, a non-ionic detergent block co-polymer of propylene oxide and ethylene oxide) as follows: Pluronic F-68 (mw 8,400; BASF Corp., Parsippany, N.J.) was diluted to 10 mg/ml in warm (37° C.) Dulbecco's high glucose modified Eagle's medium (DMEM; Whittaker Bioproducts, Walkersville, Md.), and the solution then heated to 50° C. n-Docosanol was added at 10 mg/ml to the Pluronic F-68 in DMEM and the solution further heated to 86° C. wile sonicating (Branson 450 sonifier) for 21 minutes at an initial output of 65 watts. The resulting stock suspension contained 10 mg/ml of n-docosanol particles of 0.03-0.3 microns. The corresponding control solution was prepared identically except the n-docosanol was excluded.
Adult DBA/1 mice were immunized with collagen/CFA as described in […], and on day 44 after primary immunization the mammals were given a clinical score and placed in one of three groups. […] One group was treated once daily with 5 mg of n-docosanol as indicated in FIG. 3 (0.5 ml of 10 mg/ml n-docosanol in 10 mg/ml Pluronic F-68), half of which was given intravenously and the other half given subcutaneously. Another group was treated with 5 mg Pluronic F-68 control in a similar manner. The last group was left untreated.
The effects of n-docosanol on CIA in DBA/1 Mice are depicted in FIG. 3. Adult DBA/1 male mice were immunized with collagen/CFA as described in the legend to FIG. 2. […]

[3] = system: LP-BM 5 MuLV ecotropic virus; test: Percent virus inhibition / plaque count of LP-BM 5 MuLV ecotropic virus using XC indicator cells; format: cell-based; conditions: for inhibition at 0.5 µg/mL / inhibition at 5 µg/mL / inhibition at 50 µg/mL / inhibition at 500 µg/mL: read-out: % decrease
Method: A composition a composition consisting essentially of aliphatic alcohols having 22 carbons in the aliphatic chain in micelle suspension, […], was introduced into cultures of LP-BM 5 MuLV ecotropic virus, […], and the percent of virus inhibition, as compared with controls continuing only PBS buffer, indicated by cell-fusion activity and cell plaque count, using XC indicator cells (Virology 42:1136, 1970), was determined.
The effect of the C-20 to C-26 alcohols of this invention on ecotropic virus was further confirmed and compared with AZT.

## CCCCCCCCCCCCCCCCCCCCCCCCCCCCCCO [1-triacontanol]
Inflammatory disorders
  anti-inflammatory effectiveness: the aerosol carrier destroyed the effect of triacontanol
[1]
  physical performance of athletes: improved physical performance of athletes
Growth of plants
  plant growth activity: stimulates the growth of plants

## CCCCCCCCCCCCCCCCCCCCCCO [C-22 Alcohol, n-docosanol]
[2]; 24 hours after the first treatment, vs untreated or control-treated, 5 mg once daily, half i.v., half s.c.
  mean clinical score: significant decrease in mean clinical score
[2]; after further regimen of 3 treatments
  P value, decrease in mean clinical score vs untreated: 0.001
[2]; after further regimen of 3 treatments (days 50-52)
  mean clinical score: another significant decrease in mean clinical score
[2]; after further regimen of 3 treatments, Pluronic F-68 control
  P value, decrease in mean clinical score vs control-treated: 0.03
[2]; after primary immunization (3 days after initial treatment)
  day of first complete clinical remission: 47 days
[2]; by day 55 after primary immunization
  clinically normal mammals: 100%
[2]; complete clinical remission
  lag of remission in untreated or control-treated groups behind n-docosanol-treated group: 8 to 9 days
[2]; day 49, 48 hours after the last injection
  mean clinical score: a rise in mean clinical score
[2]; panel B of FIG. 3
  occurrence of remission from CIA: hastened the occurrence of remission from CIA
[3]; 0.5 μg/ml, 10^2 input
  Plaques/culture: 110 ± 2 Plaques/culture
  inhibition at 0.5 µg/mL: 19%
[3]; 0.5 μg/ml, 10^3 input
  Plaques/culture: 703 ± 88 Plaques/culture
  inhibition at 0.5 µg/mL: 14%
[3]; 5 μg/ml, 10^2 input
  Plaques/culture: 84 ± 12 Plaques/culture
  inhibition at 5 µg/mL: 36%
[3]; 5 μg/ml, 10^3 input
  Plaques/culture: 561 ± 50 Plaques/culture
  inhibition at 5 µg/mL: 31%
[3]; 50 μg/ml, 10^2 input
  Plaques/culture: 72 ± 24 Plaques/culture
  inhibition at 50 µg/mL: 45%
[3]; 50 μg/ml, 10^3 input
  Plaques/culture: 562 ± 11 Plaques/culture
  inhibition at 50 µg/mL: 31%
[3]; 500 μg/ml, 10^2 input
  Plaques/culture: 13 ± 2 Plaques/culture
  inhibition at 500 µg/mL: 90%
[3]; 500 μg/ml, 10^3 input
  Plaques/culture: 401 ± 5 Plaques/culture
  inhibition at 500 µg/mL: 51%
[3]; C-22 alcohol 0.06 μg/ml, 100 PFU/ml (10^2 input)
  inhibition at 0.06 µg/mL: 7%
[3]; C-22 alcohol 0.6 μg/ml, 100 PFU/ml (10^2 input)
  inhibition at 0.6 µg/mL: 22%
[3]; C-22 alcohol 6 μg/ml, 100 PFU/ml (10^2 input)
  inhibition at 6 µg/mL: 40%
[3]; C-22 alcohol 60 μg/ml, 100 PFU/ml (10^2 input)
  inhibition at 60 µg/mL: 89%

## Cc1cn([C@H]2C[C@H](N=[N+]=[N-])[C@@H](CO)O2)c(=O)[nH]c1=O [AZT, reference compound]
[3]; 0.5 μg/ml, 10^2 input
  Plaques/culture: 34 ± 3 Plaques/culture
  inhibition at 0.5 µg/mL: 69%
[3]; 0.5 μg/ml, 10^3 input
  Plaques/culture: 657 ± 24 Plaques/culture
  inhibition at 0.5 µg/mL: 14%
[3]; 5 μg/ml, 10^2 input
  Plaques/culture: 43 ± 3 Plaques/culture
  inhibition at 5 µg/mL: 60%
[3]; 5 μg/ml, 10^3 input
  Plaques/culture: 382 ± 59 Plaques/culture
  inhibition at 5 µg/mL: 50%
[3]; 50 μg/ml, 10^2 input
  Plaques/culture: 23 ± 5 Plaques/culture
  inhibition at 50 µg/mL: 79%
[3]; 50 μg/ml, 10^3 input
  Plaques/culture: 131 ± 10 Plaques/culture
  inhibition at 50 µg/mL: 83%
[3]; 500 μg/ml, 10^2 input
  Plaques/culture: 5 ± 3 Plaques/culture
  inhibition at 500 µg/mL: 95%
[3]; 500 μg/ml, 10^3 input
  Plaques/culture: 43 ± 6 Plaques/culture
  inhibition at 500 µg/mL: 94%

## CCCCCCCCCCCCCCCCCCCCCCCCCCO [hexacosanol]
[1]
  physical performance of athletes: improved physical performance of athletes

## CCCCCCCCCCCCCCCCCCCCCCCCCCCCCCCCO [C-32]
Growth of plants
  plant growth activity: do not possess such physiological activity, or at least have very much less physiological activity in plant growth

## CCCCCCCCCCCCCCCCCCCCCCCCO [tetracosanol]
[1]
  physical performance of athletes: improved physical performance of athletes

## CCCCCCCCCCCCCCCCCCCCCCCCCCCCO [octacosanol]
[1]
  physical performance of athletes: improved physical performance of athletes
Growth of plants
  plant growth activity: do not possess such physiological activity, or at least have very much less physiological activity in plant growth
